Source: patent publication US4806532A, “Inhibition of epithelial phosphate transport” (Mayo Foundation for Medical Education and Research, priority 1985, dated 1989)
Counter-ions that a name gives are not always drawn.

Tests used:
BBM enzymes APase = target: T1, BBM enzymes APase (Rattus norvegicus, UniProt P08289); assay: Effect on BBM enzyme APase (data not shown); type: biochemical
T1 construct: from tissue; host or cells: renal brush border membrane vesicles (rat inferred)
T1 sequence (P08289 18-502 limits assumed): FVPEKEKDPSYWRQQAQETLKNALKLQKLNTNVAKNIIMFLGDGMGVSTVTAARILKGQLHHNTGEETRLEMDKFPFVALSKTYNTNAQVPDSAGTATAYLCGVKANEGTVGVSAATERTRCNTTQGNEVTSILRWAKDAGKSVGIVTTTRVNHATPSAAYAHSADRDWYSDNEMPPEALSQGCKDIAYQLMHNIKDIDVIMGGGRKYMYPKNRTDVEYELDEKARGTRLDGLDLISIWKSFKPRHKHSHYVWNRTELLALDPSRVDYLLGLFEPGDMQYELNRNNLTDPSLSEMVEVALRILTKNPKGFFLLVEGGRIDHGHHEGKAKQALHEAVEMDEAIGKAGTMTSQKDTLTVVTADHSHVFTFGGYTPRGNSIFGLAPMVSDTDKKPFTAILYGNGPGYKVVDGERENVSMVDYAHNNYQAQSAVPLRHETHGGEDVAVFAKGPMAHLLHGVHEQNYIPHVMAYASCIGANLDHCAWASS

Na-Pi cotransporter = target: T2, Na-Pi cotransporter (Canis lupus familiaris, UniProt A0A8I3NFY6); assay: Na+-gradient-dependent 32Pi uptake by renal BBMV, dog; type: biochemical
T2 construct: were prepared from renal cortices of mongrel dogs, albino mice and New Zealand albino rabbits; from tissue; host or cells: mongrel dog renal cortex, brush border membrane vesicles
T2 sequence (A0A8I3NFY6 1-639): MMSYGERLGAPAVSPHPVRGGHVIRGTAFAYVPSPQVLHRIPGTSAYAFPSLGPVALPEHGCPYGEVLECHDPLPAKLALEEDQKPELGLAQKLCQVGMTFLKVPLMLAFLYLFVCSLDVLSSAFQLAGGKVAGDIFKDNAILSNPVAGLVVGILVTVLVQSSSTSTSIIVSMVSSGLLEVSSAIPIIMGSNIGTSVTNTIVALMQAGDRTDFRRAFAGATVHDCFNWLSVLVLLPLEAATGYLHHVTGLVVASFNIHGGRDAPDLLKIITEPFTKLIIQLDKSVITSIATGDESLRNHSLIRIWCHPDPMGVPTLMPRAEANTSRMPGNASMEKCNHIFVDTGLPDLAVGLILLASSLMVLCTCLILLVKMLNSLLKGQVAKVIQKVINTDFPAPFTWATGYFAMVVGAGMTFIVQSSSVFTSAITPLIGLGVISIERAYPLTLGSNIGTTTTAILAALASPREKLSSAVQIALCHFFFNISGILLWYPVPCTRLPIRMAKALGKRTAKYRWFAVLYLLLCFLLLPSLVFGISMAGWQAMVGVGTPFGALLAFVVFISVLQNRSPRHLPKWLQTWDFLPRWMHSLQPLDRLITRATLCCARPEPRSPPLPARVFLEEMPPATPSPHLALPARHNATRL
Experimental: The brush border membrane vesicles (BBMV) were prepared from renal cortical tissue of adult male Sprague-Dawley rats of an average body weight of about 220 grams. Rats were fed ad libitum standard rat chow containing 0.7% Pi and had free access to distilled water. Rats were sacrificed under anesthesia and dissected renal cortical tissue was used for preparation of BBMV fraction by the divalent cation-precipitation procedure, employed and described in detail in J. Clin. Invest., 67, 1347 (1981) and J. Biol. Chem., 258, 5695 (1983), with the following modifications: (a) MgCl2 instead of CaCl2 was added to crude homogenate (final concentration 10 mM MgCl2) to precipitate membranes other than BBMV; (b) in the final step, BBMV were washed and equilibrated in a medium of pH=7.5, instead of pH=8.5. The enrichment and specific activities of typical BBM enzymes alkaline phosphatase (APases), γ-glutyamyl transferase (γ-GTT), leucineaminopeptidase (LAP) and maltase with use of these modifications were similar as in BBMV fractions prepared in our previous studies. As a final step in the preparative procedure, the BBMV fraction was washed and resuspended in a medium containing 300 mM mannitol and 5 mM Tris-HEPES adjusted to pH=t.5, referred to as "MTH-medium," unless specified otherwise. The analogous BBMV fractions, using the same procedure, were prepared from renal cortices of mongrel dogs, albino mice and New Zealand albino rabbits.
The BBMV uptake of ^32 Pi, D-[^3 H]-glucose, L-[^3 H]-proline and ^22 Na^+ was measured by means of a rapid filtration technique, as described in J. Clin. Invest., 67, 1347 (1981) and Am. J. Physiol., 246, F133-F139 (1984). Also, unless specified otherwise, the medium for the solute uptake assay consisted of following compounds (in final concentrations): 100 mM mannitol, 100 mM NaCl (or 100 mM KC1) and 5 mM Tris-HEPES (pH=7.5) and eitehr 0.1 mM K2 H^32 PO4, or 0.05 mM D-[^3 H]-glucose, or 0.025 mM L-[^3 H]-proline. IN the ^22 Na^+ uptake studies, the assay medium contained 100 mM ^22 NaCl (^22 NaCl about […] per tube), 100 mM mannitol and 5 mM Tris-HEPES (pH 7.5).
In most experiments, the Na^+ -gradient-dependent ^32 Pi uptake in the concentrative "uphill" phase was measured at 20 seconds period. Since Na^+ -independent Pi uptake in this time period was quantitatively minor component (<5%) of the Na^+ -gradient-dependent Pi uptake, it was not routinely subtracted.

O=C(O)P(=O)(O)O [TPFA, Phosphonoformic acid, trisodium salt hexahydrate]
effect on BBM enzyme APase (BBM enzymes APase): without inhibitory effect | 32Pi-uptake 120 min (Na-Pi cotransporter; 1 mM TPFA, control 410 ± 5): 377 ± 6 pmoles Pi/mg protein/time | 32Pi-uptake 20 sec (Na-Pi cotransporter; 1 mM TPFA, control 1178 ± 15): 476 ± 9 pmoles Pi/mg protein/time | 32Pi-uptake 20 sec (Na-Pi cotransporter; 5 mM TPFA): 110 ± 3 pmoles Pi/mg protein/time | 32Pi-uptake 120 min (Na-Pi cotransporter; 5 mM TPFA): 428 ± 9 pmoles Pi/mg protein/time | inhibition at 1000 µM (Na-Pi cotransporter; 20 s, 1 mM TPFA, read-out: percent decrease of 20 sec 32Pi-uptake relative to control value): 59.6% | inhibition at 5000 µM (Na-Pi cotransporter; 20 s, 5 mM TPFA, read-out: percent decrease of 20 sec 32Pi-uptake relative to control value): 90.7%
